{"source": "patent US20020103380A1", "about": "“Thiourea and urea liquid-phase combinatorial libraries: synthesis and apoptosis induction” (Parker Hughes Institute, priority 1999, published 2002)", "key": {"[1]": {"test": "compound stability remark in Table 1", "assay_type": "physicochemical"}, "human tumor cell lines": {"test_system": "human tumor cell lines", "test": "MTT assays, cell line not given", "assay_type": "cell-based", "conditions": "cell line not stated; for relative cytotoxic / biological activity: MTT; for IC50: Homo sapiens", "protocol": "(§1) The cytotoxicity assay of various CL2 compounds against human tumor cell lines was performed using the MTT (3-[4,5-dimethylthiazol-2-yl]-2,5-diphenyl tetrazolium bromide) assay (Boehringer Mannheim Corp., Indianapolis, Ind.). Briefly, exponentially growing tumor cells were seeded into a 96-well plate at a density of 2.5×10^4 cells/well and incubated for 36 hours at 37° C. prior to compound exposure. On the day of treatment, culture medium was carefully aspirated from the wells and replaced with fresh medium containing the CL2 compounds at concentrations ranging from 0.0 to 100 μM. Triplicate wells were used for each treatment.\n(§2) Human cell lines were obtained from American Type Culture Collection (Rockville, Md.) and maintained as a continuous cell line in Dulbecco's modified Eagles' medium supplemented with 10% fetal bovine serum and antibiotics. Cells used in this study include human leukemia cells (NALM-6 and MOLT-3).\n(§3) The cells were incubated with the various compounds for 24-36 hours at 37° C. in a humidified 5% CO2 atmosphere. To each well, 10 μl of MTT (0.5 mg/ml final concentration) was added and the plates were incubated at 37° C. for 4 hours to allow MTT to form formazan crystals by reacting with metabolically active cells. The formazan crystals were solubilized overnight at 37° C. in a solution containing 10% SDS in 0.01 M HCl. The absorbance of each well was measured in a microplate reader (Labsystems) at 540 nm and a reference wavelength of 690 nm. To translate the OD540 values into the number of live cells in each well, the OD540 values were compared to those on standard OD540-versus-cell number curves generated for each cell line. The percent survival was calculated using the formula:\n(§4) % Survival=live cell number [test]/live cell number [control]×100\n(§5) The IC50 values were calculated by non-linear regression analysis."}, "[2]": {"test_system": "NALM-6 human leukemia cells", "test": "MTT cytotoxicity assay, NALM-6", "assay_type": "cell-based", "conditions": "for ED50 Nalm6: Table 4, individual lead compounds; for relative cytotoxic activity: ranking among the 21 individual compounds, Nalm6, MTT", "protocol": "Stage (4): deconvolution and re-synthesis were guided by an iterative screening procedure during which the cytotoxic anti-cancer activities of the individual sub-libraries were measured against the human leukemia cell lines NALM-6 and MOLT-3 using MTT assays. […] However, this is not always true when even-splitting was not possible or some special consideration. […] Another special example is the small 10-member sublibrary CL2.\nas §1, §2, §3, §4, §5"}}, "data": [{"smiles": "Fc1ccc(CCNC(=S)NCCc2ccc(F)cc2)cc1", "note": "[CL2j]", "values": [{"measurement": "stability (remark in place of IC50)", "setting": "[1]", "value": "unstable compound"}]}, {"smiles": "Fc1ccc(CCNC(=S)NCCc2ccc(Cl)cc2Cl)cc1", "note": "[CL10b]", "values": [{"measurement": "relative cytotoxic / biological activity", "setting": "human tumor cell lines", "value": "most active"}]}, {"smiles": "COc1ccc(OC)c(CCNC(=S)NCCc2ccccc2OC)c1", "note": "[CL12a]", "values": [{"measurement": "relative cytotoxic / biological activity", "setting": "human tumor cell lines", "value": "most active"}]}, {"smiles": "COc1ccccc1CCNC(=S)NCCc1ccc(Cl)cc1Cl", "note": "[CL12b]", "values": [{"measurement": "relative cytotoxic / biological activity", "setting": "human tumor cell lines", "value": "most active"}]}, {"smiles": "CC(NC(=S)NC(C)c1ccccc1)c1ccccc1", "note": "(stereo not drawn) [Compound L34A2A2]", "values": [{"measurement": "ED50 Nalm6", "setting": "[2]", "value": 50, "unit": "µg/mL"}]}, {"smiles": "CC(NC(=S)NC(c1ccccc1)c1ccccc1)c1ccccc1", "note": "(stereo not drawn) [Compound L34A2A3]", "values": [{"measurement": "ED50 Nalm6", "setting": "[2]", "value": 50, "unit": "µg/mL"}]}, {"smiles": "CC(NC(=S)NC(c1ccccc1)(c1ccccc1)c1ccccc1)c1ccccc1", "note": "(stereo not drawn) [Compound L34A2A4]", "values": [{"measurement": "ED50 Nalm6", "setting": "[2]", "value": 50, "unit": "µg/mL"}]}, {"smiles": "S=C(NC(c1ccccc1)c1ccccc1)NC(c1ccccc1)c1ccccc1", "note": "[Compound L34A3A3]", "values": [{"measurement": "ED50 Nalm6", "setting": "[2]", "value": ">100", "unit": "µg/mL"}]}, {"smiles": "S=C(NC(Cc1ccccc1)c1ccccc1)NC(c1ccccc1)c1ccccc1", "note": "(stereo not drawn) [Compound L34A3A5, 1-(1,2-Diphenylethyl)-3-(diphenylmethyl)-2-thiourea]", "values": [{"measurement": "ED50 Nalm6", "setting": "[2]", "value": "<10", "unit": "µg/mL"}, {"measurement": "relative cytotoxic activity", "setting": "[2]", "value": "most active"}, {"measurement": "IC50", "setting": "human tumor cell lines", "value": "< 10", "unit": "µg/mL"}]}, {"smiles": "S=C(NC(c1ccccc1)(c1ccccc1)c1ccccc1)NC(c1ccccc1)(c1ccccc1)c1ccccc1", "note": "[Compound L34A4A4]", "values": [{"measurement": "ED50 Nalm6", "setting": "[2]", "value": 30, "unit": "µg/mL"}]}, {"smiles": "S=C(NC(Cc1ccccc1)c1ccccc1)NC(Cc1ccccc1)c1ccccc1", "note": "(stereo not drawn) [Compound L34A5A5, 1,3-Bis(1,2-diphenylethyl)-2-thiourea]", "values": [{"measurement": "ED50 Nalm6", "setting": "[2]", "value": "<10", "unit": "µg/mL"}, {"measurement": "relative cytotoxic activity", "setting": "[2]", "value": "most active"}, {"measurement": "IC50", "setting": "human tumor cell lines", "value": "< 10", "unit": "µg/mL"}]}]}
